# Data: patent publication US10597388B2, “Pyridazinone herbicides” (FMC CORPORATION, priority 2014, dated 2020)
# How the values were obtained:
# Type in all cases: in vivo
# [1] = test system: oat, wild (wild oat, Avena fatua); experiment: Test C greenhouse herbicide test, postemergence
# In short: (§1)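 Seedlings are raised in pots of peat moss–vermiculite medium with starter nutrients, then receive postemergence test chemical at the 1- to 4-leaf stage. They are kept in the greenhouse 13 to 15 d and scored visually versus controls, 0 meaning no effect and 100 complete control.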
# [2] = test system: kochia (Kochia scoparia); experiment: Test C greenhouse herbicide test, postemergence
# In short: as §1
# [3] = test system: chickweed (common chickweed, Stellaria media); experiment: Test C greenhouse herbicide test, postemergence
# In short: as §1
# [4] = test system: soybean (Glycine max); experiment: Test C greenhouse herbicide test, pre- and postemergence
# From the text: (§2) Seeds of plant species selected from blackgrass (Alopecurus myosuroides), ryegrass, Italian (Italian ryegrass, Lolium multiflorum), wheat (winter wheat, Triticum aestivum), galium (catchweed bedstraw, Galium aparine), corn (Zea mays), large crabgrass, large (large crabgrass, Digitaria sanguinalis), foxtail, giant (giant foxtail, Setaria faberii), johnsongrass (Sorghum halepense), lambsquarters (Chenopodium album), morningglory (Ipomoea coccinea), nutsedge, yellow (yellow nutsedge, Cyperus esculentus), pigweed (Amaranthus retroflexus), ragweed (common ragweed, Ambrosia elatior), soybean (Glycine max), barnyardgrass (Echinochloa crus-galli), oilseed rape (Brassica napus), waterhemp (common waterhemp, Amaranthus rudis), and velvetleaf (Abutilon theophrasti) were planted into a blend of loam soil and sand and treated preemergence with test chemicals formulated in a non-phytotoxic solvent mixture which included a surfactant.
# (§3) At the same time, plants selected from these crop and weed species and also chickweed (common chickweed, Stellaria media), kochia (Kochia scoparia), and oat, wild (wild oat, Avena fatua), were planted in pots containing Redi-Earth® planting medium (Scotts Company, 14111 Scottslawn Road, Marysville, Ohio 43041) comprising spaghnum peat moss, vermiculite, wetting agent and starter nutrients and treated with postemergence applications of test chemicals formulated in the same manner. Plants ranged in height from 2 to 18 cm (1- to 4-leaf stage) for postemergence treatments. Treated plants and controls were maintained in a greenhouse for 13 to 15 d, after which time all species were compared to controls and visually evaluated. Plant response ratings, summarized in Table C, are based on a scale of 0 to 100 where 0 is no effect and 100 is complete control. A dash (-) response means no test result.
# [5] = test system: johnsongrass (Sorghum halepense); experiment: as above
# From the text: as §2, §3
# [6] = test system: nutsedge, yellow (yellow nutsedge, Cyperus esculentus); experiment: as above
# From the text: as §2, §3
# [7] = test system: rice (Oryza sativa); experiment: Test B flooded paddy test; details: 250 g ai/ha, Flood, visual rating on scale of 0 to 100 where 0 is no effect and 100 is complete control, 13 to 15 d after treatment; for plant injury at 250 g/ha: Oryza sativa, 360 h, read-out: Plant response rating, Rice
# In short: (§4)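 Plants grown to the 2-leaf stage. At treatment, pots were flooded to 3 cm above the soil, compound was applied directly to the paddy water, and that depth was held throughout. After 13 to 15 d in the greenhouse, response was rated visually against controls on a 0 (no effect) to 100 (complete control) scale.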
# [8] = test system: sedge, umbrella (small-flower umbrella sedge, Cyperus difformis); experiment: Test B flooded paddy test; details: 250 g ai/ha, Flood, visual rating on scale of 0 to 100 where 0 is no effect and 100 is complete control, 13 to 15 d after treatment; for pest or weed control at 250 g/ha: Cyperus difformis, 360 h, read-out: Plant response rating, Sedge, Umbrella
# In short: as §4
# [9] = test system: ducksalad (Heteranthera limosa); experiment: Test B flooded paddy test; details: 250 g ai/ha, Flood, visual rating on scale of 0 to 100 where 0 is no effect and 100 is complete control, 13 to 15 d after treatment; for pest or weed control at 250 g/ha: Heteranthera limosa, 360 h, read-out: Plant response rating, Ducksalad
# In short: as §4
# [10] = test system: barnyardgrass (Echinochloa crus-galli); experiment: Test B flooded paddy test; details: 250 g ai/ha, Flood, visual rating on scale of 0 to 100 where 0 is no effect and 100 is complete control, 13 to 15 d after treatment; for pest or weed control at 250 g/ha: Echinochloa crus-galli, 360 h, read-out: Plant response rating, Barnyardgrass
# In short: as §4
# [11] = test system: blackgrass (Alopecurus myosuroides); experiment: Test A greenhouse herbicide test, postemergence
# In short: (§5)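 Visual injury score, 0 (no effect) to 100 (complete control), versus untreated controls roughly 10 d after postemergence spray; plants at one- to two-leaf stage, 2 to 10 cm tall, in loam soil and sand, kept in greenhouse.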
# [12] = test system: galium (catchweed bedstraw, Galium aparine); experiment: Test A greenhouse herbicide test, postemergence
# In short: as §5
# [13] = Postemergence, 31 g ai/ha, 0 to 100 scale (0 no effect, 100 complete control)
# [14] = Postemergence, 125 g ai/ha, scale 0 to 100, 0 is no effect, 100 is complete control
# [15] = Postemergence, 250 g ai/ha, scale 0 to 100, 0 no effect, 100 complete control, 13 to 15 d
# [16] = postemergence, 62 g ai/ha, scale 0 to 100, 0 no effect, 100 complete control
# [17] = Preemergence, 62 g ai/ha, scale 0 to 100, 0 is no effect, 100 is complete control
# [18] = Preemergence, 125 g ai/ha, scale 0 to 100, 0 is no effect, 100 is complete control
# [19] = Preemergence, 250 g ai/ha, scale 0 to 100, 0 no effect, 100 complete control
# [20] = Preemergence, 31 g ai/ha, scale 0 to 100, 0 is no effect, 100 is complete control
# [21] = 125 g ai/ha, visual rating after approx. 10 d, 0 to 100 scale (0 no effect, 100 complete control)
# [22] = 500 g ai/ha, 0 to 100 scale, 0 is no effect, 100 is complete control
structure (smiles),measurement,setting,value
"CCc1oc2ccc(C)cc2c1-c1c(O)c(C)nn(C)c1=O [Compound 10, 4-(2-ethyl-5-methyl-3-benzofuranyl)-5-hydroxy-2,6-dimethyl-3(2H)-pyridazinone]","Oat, Wild plant response rating",[1]; [13],5
same,"Plant response rating, Oat, Wild",[1]; [14],5
same,"Plant response rating, Oat, Wild",[1]; [15],25
same,"Oat, Wild plant response rating",[1]; [16],5
same,Kochia plant response rating,[2]; [13],60
same,"Plant response rating, Kochia",[2]; [14],95
same,"Plant response rating, Kochia",[2]; [15],95
same,Kochia plant response rating,[2]; [16],85
same,Chickweed plant response rating,[3]; [13],90
same,"Plant response rating, Chickweed",[3]; [14],90
same,"Plant response rating, Chickweed",[3]; [15],90
same,Chickweed plant response rating,[3]; [16],90
same,Soybean plant response rating,[4]; [13],0
same,"Plant response rating, Soybean",[4]; [14],0
same,"Plant response rating, Soybean",[4]; [15],0
same,"Plant response rating, Soybean",[4]; [17],0
same,"Plant response rating, Soybean",[4]; [18],0
same,Soybean plant response rating,[4]; [19],0
same,Soybean plant response rating,[4]; [16],0
same,Johnsongrass plant response rating,[5]; [13],0
same,"Plant response rating, Johnsongrass",[5]; [14],5
same,"Plant response rating, Johnsongrass",[5]; [15],25
same,"Plant response rating, Johnsongrass",[5]; [20],0
same,"Plant response rating, Johnsongrass",[5]; [17],0
same,"Plant response rating, Johnsongrass",[5]; [18],0
same,Johnsongrass plant response rating,[5]; [19],0
same,Johnsongrass plant response rating,[5]; [16],0
same,"Plant response rating, Nutsedge, Yellow",[6]; [20],0
same,"Plant response rating, Nutsedge, Yellow",[6]; [17],0
same,"Plant response rating, Nutsedge, Yellow",[6]; [18],0
same,"Nutsedge, Yellow plant response rating",[6]; [19],0
same,plant injury at 250 g/ha,[7],0%
same,pest or weed control at 250 g/ha,[8],0%
same,pest or weed control at 250 g/ha,[9],30%
same,pest or weed control at 250 g/ha,[10],0%
"Cc1nn(C)c(=O)c(-c2cccc3ccccc23)c1O [Compound 11, 5-hydroxy-2,6-dimethyl-4-(1-naphthalenyl)-3(2H)-pyridazinone]","Oat, Wild plant response rating",[1]; [13],40
same,"Plant response rating, Oat, Wild",[1]; [14],60
same,"Plant response rating, Oat, Wild",[1]; [15],70
same,"Oat, Wild plant response rating",[1]; [16],45
same,Kochia plant response rating,[2]; [13],85
same,"Plant response rating, Kochia",[2]; [14],100
same,"Plant response rating, Kochia",[2]; [15],100
same,Kochia plant response rating,[2]; [16],95
same,Chickweed plant response rating,[3]; [13],60
same,"Plant response rating, Chickweed",[3]; [14],85
same,"Plant response rating, Chickweed",[3]; [15],90
same,Chickweed plant response rating,[3]; [16],65
same,Soybean plant response rating,[4]; [13],0
same,"Plant response rating, Soybean",[4]; [14],0
same,"Plant response rating, Soybean",[4]; [15],0
same,"Plant response rating, Soybean",[4]; [17],0
same,"Plant response rating, Soybean",[4]; [18],0
same,Soybean plant response rating,[4]; [19],0
same,Soybean plant response rating,[4]; [16],0
same,Johnsongrass plant response rating,[5]; [13],0
same,"Plant response rating, Johnsongrass",[5]; [14],5
same,"Plant response rating, Johnsongrass",[5]; [15],5
same,"Plant response rating, Johnsongrass",[5]; [20],0
same,"Plant response rating, Johnsongrass",[5]; [17],0
same,"Plant response rating, Johnsongrass",[5]; [18],0
same,Johnsongrass plant response rating,[5]; [19],0
same,Johnsongrass plant response rating,[5]; [16],0
same,"Nutsedge, Yellow plant response rating",[6]; [13],5
same,"Plant response rating, Nutsedge, Yellow",[6]; [14],30
same,"Plant response rating, Nutsedge, Yellow",[6]; [15],45
same,"Plant response rating, Nutsedge, Yellow",[6]; [20],0
same,"Plant response rating, Nutsedge, Yellow",[6]; [17],5
same,"Plant response rating, Nutsedge, Yellow",[6]; [18],10
same,"Nutsedge, Yellow plant response rating",[6]; [19],30
same,"Nutsedge, Yellow plant response rating",[6]; [16],15
same,plant injury at 250 g/ha,[7],0%
same,pest or weed control at 250 g/ha,[8],0%
same,pest or weed control at 250 g/ha,[9],0%
same,pest or weed control at 250 g/ha,[10],0%
Cn1nc(Br)c(O)c(-c2cccc3ccccc23)c1=O [Compound 20],"Oat, Wild plant response rating",[1]; [13],0
same,"Plant response rating, Oat, Wild",[1]; [14],25
same,"Plant response rating, Oat, Wild",[1]; [15],40
same,"Oat, Wild plant response rating",[1]; [16],5
same,Kochia plant response rating,[2]; [13],50
same,"Plant response rating, Kochia",[2]; [14],90
same,"Plant response rating, Kochia",[2]; [15],100
same,Kochia plant response rating,[2]; [16],80
same,Chickweed plant response rating,[3]; [13],90
same,"Plant response rating, Chickweed",[3]; [14],100
same,"Plant response rating, Chickweed",[3]; [15],100
same,Chickweed plant response rating,[3]; [16],98
same,"Plant response rating, Blackgrass",[11]; [21],30
same,Blackgrass plant response rating,[11]; [22],40
same,"Plant response rating, Galium",[12]; [21],90
same,Galium plant response rating,[12]; [22],100
same,Soybean plant response rating,[4]; [13],0
same,"Plant response rating, Soybean",[4]; [14],35
same,"Plant response rating, Soybean",[4]; [15],0
same,"Plant response rating, Soybean",[4]; [17],20
same,"Plant response rating, Soybean",[4]; [18],30
same,Soybean plant response rating,[4]; [19],30
same,Soybean plant response rating,[4]; [16],0
same,Johnsongrass plant response rating,[5]; [13],5
same,"Plant response rating, Johnsongrass",[5]; [14],10
same,"Plant response rating, Johnsongrass",[5]; [15],10
same,"Plant response rating, Johnsongrass",[5]; [20],0
same,"Plant response rating, Johnsongrass",[5]; [17],0
same,"Plant response rating, Johnsongrass",[5]; [18],0
same,Johnsongrass plant response rating,[5]; [19],10
same,Johnsongrass plant response rating,[5]; [16],10
same,"Nutsedge, Yellow plant response rating",[6]; [13],45
same,"Plant response rating, Nutsedge, Yellow",[6]; [14],85
same,"Plant response rating, Nutsedge, Yellow",[6]; [15],95
same,"Plant response rating, Nutsedge, Yellow",[6]; [20],80
same,"Plant response rating, Nutsedge, Yellow",[6]; [17],85
same,"Plant response rating, Nutsedge, Yellow",[6]; [18],95
same,"Nutsedge, Yellow plant response rating",[6]; [19],95
same,"Nutsedge, Yellow plant response rating",[6]; [16],65
same,"Plant response rating, Rice",[7],0
same,"Plant response rating, Sedge, Umbrella",[8],50
same,"Plant response rating, Ducksalad",[9],50
same,"Plant response rating, Barnyardgrass",[10],0
